Assay [1] has as its target T1, PPK-2 (MBP-PPK-2) (Mycobacterium tuberculosis, UniProt O05877).
T1 construct: gene ppk2
As to the kind of experiment: luciferase-based ATP synthesis endpoint assay. In kind it is biochemical.

For assay [2], the target named is T1, PPK-2 (MBP-PPK-2).

T1 sequence (O05877 whole entry, looked up): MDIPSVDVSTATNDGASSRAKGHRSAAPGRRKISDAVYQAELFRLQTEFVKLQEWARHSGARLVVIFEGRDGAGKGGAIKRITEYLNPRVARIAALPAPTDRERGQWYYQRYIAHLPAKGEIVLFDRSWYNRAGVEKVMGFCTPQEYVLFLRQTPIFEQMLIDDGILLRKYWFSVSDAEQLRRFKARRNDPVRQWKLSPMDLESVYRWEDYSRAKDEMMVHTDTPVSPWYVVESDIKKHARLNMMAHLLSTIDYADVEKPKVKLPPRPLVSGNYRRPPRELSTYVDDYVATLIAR

In general, inhibition refers to how much of the control response was suppressed. Turning to `CC1Oc2cc3c(-c4c(O)cc(O)c5c(O)c6c(cc45)OC(C)C(C)C6=O)c(O)cc(O)c3c(O)c2C(=O)C1C` (stereo not drawn) [NSC-345647], the inhibition at 100 µM on PPK-2 (MBP-PPK-2) [1] was above 80%.
`O=c1cc2oc3cc(O)c(O)cc3c(-c3ccccc3O)c-2cc1O` [NSC-9037] displayed an inhibition at 100 µM on PPK-2 (MBP-PPK-2) [1] above 80%.
For the compound `O=P(O)(O)OP(=O)(O)OP(=O)(O)O` [PolyP3], the “luciferase-based ATP quantification” value at PPK-2 (MBP-PPK-2) [2] is “MBP-PPK-2 could also utilize short chain polyphosphates, PolyP3 as the phosphate donor”.
As to `Nc1ncnc2c1ncn2[C@@H]1O[C@H](COP(=O)(O)OP(=O)(O)O)[C@@H](O)[C@H]1O` [ADP], at PPK-2 (MBP-PPK-2) [2], the “luciferase-based ATP quantification” value was “ATP synthetic activity of PPK-2 increased in the presence of both ADP and enzyme”.
Usually % inhibition stands for the drop in the measured response relative to a control, in per cent. A higher % inhibition goes with a strong effect. `O=c1c(O)cccc2cc(O)c(O)c(O)c12` [NSC-35676]: on PPK-2 (MBP-PPK-2) [1] (PolyP17 10 μM as phosphate donor, 10 mM MgCl2, pH 7.4, 37 °C, 10 min pre-incubation, luciferase counter-screened), the “% inhibition at 100 μM” value was above 80%.
`CCOc1ccc(Nc2c3ccccc3nc3ccccc23)cc1` [NSC-30205]: the inhibition at 100 µM against PPK-2 (MBP-PPK-2) [1] was above 80%.

For the origin of these results see article PMC4899718, “Establishing Virulence Associated Polyphosphate Kinase 2 as a drug target for Mycobacterium tuberculosis” (Scientific Reports, 2016).
